For seven molecules, IC50 results are on record in patent US20220169628A1 (University of Florida Research Foundation, Incorporated, priority 2019, published 2022).

pIC50: −log10 of the molar value. Read-outs that look alike come from different tables or passages of the source. A value given as a limit tells only on which side of the number the result lay.

In one assay the test system is MOLT-4 cells. Briefly: Cell viability assay, MTS, 48 h, MOLT-4. The format is cell-based. The settings on record: 48 hours, read-out: IC50 (48 hours) MOLT-4. The method, then:
(§1) Acute lymphoblastic leukemia cells (MOLT-4 and RS4; 11) or small cell lung cancer (NCI-H146 or simply H146) were incubated with increasing concentrations of Bcl-xL degraders for 48 h. Cell viability was measured by tetrazolium-based MTS assay.

The subject of the next assay is RS4;11 cells. Briefly: Cell viability assay, MTS, 48 h, RS4;11. The format is cell-based. Conditions: 48 hours, read-out: IC50 (48 hours) RS4;11. The method, then:
as §1

In the case of `Cc1ncsc1-c1ccc([C@H](C)NC(=O)[C@@H]2C[C@@H](O)CN2C(=O)[C@@H](NC(=O)C[C@H]2CC[C@H](CC(=O)N3CCC4(CCN(CC5(C)CCC(c6ccc(Cl)cc6)=C(CN6CCN(c7ccc(C(=O)NS(=O)(=O)c8ccc(N[C@H](CCN9CCOCC9)CSc9ccccc9)c(S(=O)(=O)C(F)(F)F)c8)cc7)CC6)C5)CC4)CC3)CC2)C(C)(C)C)cc1` (relative stereo) [degrader #39], the pIC50 – broadly, the IC50 on a negative log10 scale, so that one unit is a factor of ten – in the assay on MOLT-4 cells is 6.82 to 7.30; in the assay with RS4;11 cells, greater than 7.30.
With `Cc1ncsc1-c1ccc([C@H](C)NC(=O)[C@@H]2C[C@@H](O)CN2C(=O)[C@@H](NC(=O)CCCCCCCN2CCN(CC3(C)CCC(c4ccc(Cl)cc4)=C(CN4CCN(c5ccc(C(=O)NS(=O)(=O)c6ccc(N[C@H](CCN7CCOCC7)CSc7ccccc7)c(S(=O)(=O)C(F)(F)F)c6)cc5)CC4)C3)CC2)C(C)(C)C)cc1` (some centres unmarked) [Compound 53], the pIC50 in the assay on MOLT-4 cells (Homo sapiens, MOLT-4, 48 h) was 6.82 to 7.30; with RS4;11 cells (Homo sapiens, RS4-11, 48 h) it was 6.82 to 7.30.
`Cc1ncsc1-c1ccc([C@H](C)NC(=O)[C@@H]2C[C@@H](O)CN2C(=O)[C@@H](NC(=O)CCCCCN2CCN(CC3(C)CCC(c4ccc(Cl)cc4)=C(CN4CCN(c5ccc(C(=O)NS(=O)(=O)c6ccc(N[C@H](CCN7CCOCC7)CSc7ccccc7)c(S(=O)(=O)C(F)(F)F)c6)cc5)CC4)C3)CC2)C(C)(C)C)cc1` (stereo partly drawn) [Compound 55, N^1-((4′-chloro-4-methyl-6-((4-(4-(((4-(((R)-4-morpholino-1-(phenylthio)butan-2-yl)amino)-3-((trifluoromethyl)sulfonyl)phenyl)sulfonyl)carbamoyl)phenyl)piperazin-1-yl)methyl)-2,3,4,5-tetrahydro-[1,1′-biphenyl]-4-yl)methyl)-N^2—((S)-1-((2S,4R)-4-hydroxy-2-(((S)-1-(4-(4-methylthiazol-5-yl)phenyl)ethyl)carbamoyl)pyrrolidin-1-yl)-3,3-dimethyl-1-oxobutan-2-yl)dodecanediamide]: the negative logarithm of the IC50 (pIC50) in the assay with MOLT-4 cells (Homo sapiens, MOLT-4, 48 h) is greater than 7.30; with RS4;11 cells (Homo sapiens, RS4-11, 48 h), greater than 7.30.
Take `Cc1ncsc1-c1ccc([C@H](C)NC(=O)[C@@H]2C[C@@H](O)CN2C(=O)[C@@H](NC(=O)CCCC(=O)N2CCN(CCN(C)CC3(C)CCC(c4ccc(Cl)cc4)=C(CN4CCN(c5ccc(C(=O)NS(=O)(=O)c6ccc(N[C@H](CCN7CCOCC7)CSc7ccccc7)c(S(=O)(=O)C(F)(F)F)c6)cc5)CC4)C3)CC2)C(C)(C)C)cc1` (some centres unmarked) [compound 57]: the pIC50 in the assay with MOLT-4 cells (Homo sapiens, MOLT-4, 48 h) was 6.30 to 6.82; with RS4;11 cells (Homo sapiens, RS4-11, 48 h), 6.30 to 6.82.
For the molecule `Cc1ncsc1-c1ccc([C@H](C)NC(=O)[C@@H]2C[C@@H](O)CN2C(=O)[C@@H](NC(=O)CCCCC(=O)N2CCN(CCN(C)CC3(C)CCC(c4ccc(Cl)cc4)=C(CN4CCN(c5ccc(C(=O)NS(=O)(=O)c6ccc(N[C@H](CCN7CCOCC7)CSc7ccccc7)c(S(=O)(=O)C(F)(F)F)c6)cc5)CC4)C3)CC2)C(C)(C)C)cc1` (some centres unmarked) [compound 58], the pIC50 was 6.82 to 7.30 in the assay on MOLT-4 cells (Homo sapiens, MOLT-4, 48 h) and 6.82 to 7.30 in the assay with RS4;11 cells (Homo sapiens, RS4-11, 48 h).
Consider `Cc1ncsc1-c1ccc([C@H](C)NC(=O)[C@@H]2C[C@@H](O)CN2C(=O)[C@@H](NC(=O)CCCCCC(=O)N2CCN(CCN(C)CC3(C)CCC(c4ccc(Cl)cc4)=C(CN4CCN(c5ccc(C(=O)NS(=O)(=O)c6ccc(N[C@H](CCN7CCOCC7)CSc7ccccc7)c(S(=O)(=O)C(F)(F)F)c6)cc5)CC4)C3)CC2)C(C)(C)C)cc1` (some centres unmarked) [compound 59], for which the negative-log IC50 (pIC50) in the assay on MOLT-4 cells (Homo sapiens, MOLT-4, 48 h) is greater than 7.30; with RS4;11 cells (Homo sapiens, RS4-11, 48 h) it was greater than 7.30.
Regarding `Cc1ncsc1-c1ccc([C@H](C)NC(=O)[C@@H]2C[C@@H](O)CN2C(=O)[C@@H](NC(=O)CCCCCC(=O)NCCN(C)CC2(C)CCC(c3ccc(Cl)cc3)=C(CN3CCN(c4ccc(C(=O)NS(=O)(=O)c5ccc(N[C@H](CCN6CCOCC6)CSc6ccccc6)c(S(=O)(=O)C(F)(F)F)c5)cc4)CC3)C2)C(C)(C)C)cc1` (some centres unmarked) [compound 60], the pIC50 in the assay on MOLT-4 cells (Homo sapiens, MOLT-4, 48 h) is 6.30 to 6.82; in the assay with RS4;11 cells (Homo sapiens, RS4-11, 48 h), 6.30 to 6.82.
